# Experimental data: the NIST ThermoML archive (doi:10.1021/acs.jced.5b00627)
# ± gives the expanded uncertainty stated by the source.
# Experiments:
# [1] = for viscosity: 100 kPa, Capillary tube (Ostwald / Ubbelohde) method; for viscosity / speed of sound / mass density: Liquid; for speed of sound / mass density: 101.33 kPa; for speed of sound: Sing-around technique in a fixed-path interferometer; for mass density: Vibrating tube method
# [2] = mn = molality of the nth substance listed, in mol/kg; details: 100 kPa, Liquid; for viscosity: Capillary tube (Ostwald / Ubbelohde) method; for speed of sound: Frequency=3 MHz, Sing-around technique in a fixed-path interferometer; for mass density: Vibrating tube method
smiles,measurement,setting,value
C[S+](C)[O-] [dimethyl sulfoxide],viscosity,[1]; 298.15 K,1.814 ± 0.33 mPa·s
same,speed of sound,[1]; 298.15 K,1484.8 ± 1.3 m/s
same,mass density,[1]; 298.15 K,1095.28 ± 1 kg/m3
same,viscosity,[1]; 308.15 K,1.472 ± 0.27 mPa·s
same,speed of sound,[1]; 308.15 K,1450.9 ± 1.3 m/s
same,mass density,[1]; 308.15 K,1085.23 ± 1 kg/m3
same,viscosity,[1]; 318.15 K,1.176 ± 0.21 mPa·s
same,speed of sound,[1]; 318.15 K,1417.4 ± 1.3 m/s
same,mass density,[1]; 318.15 K,1075.19 ± 1 kg/m3
COc1cc(-c2cc(-c3ccccc3)[nH]c(=O)c2C#N)ccc1O,Normal melting temperature,"[1]; Crystal, DTA",343.12 ± 1.8 °C
COc1cc(-c2cc(-c3ccc(Cl)cc3)[nH]c(=O)c2C#N)ccc1O + C[S+](C)[O-],viscosity,"[2]; 298.15 K, m1 = 0.01",1.954 ± 0.35 mPa·s
same,viscosity,"[2]; 298.15 K, m1 = 0.02",1.993 ± 0.36 mPa·s
same,viscosity,"[2]; 298.15 K, m1 = 0.04",2.037 ± 0.37 mPa·s
same,viscosity,"[2]; 298.15 K, m1 = 0.06",2.081 ± 0.38 mPa·s
same,viscosity,"[2]; 298.15 K, m1 = 0.08",2.129 ± 0.39 mPa·s
same,viscosity,"[2]; 298.15 K, m1 = 0.1",2.172 ± 0.39 mPa·s
same,speed of sound,"[2]; 298.15 K, m1 = 0.01",1486.1 ± 1.3 m/s
same,speed of sound,"[2]; 298.15 K, m1 = 0.02",1487.2 ± 1.3 m/s
same,speed of sound,"[2]; 298.15 K, m1 = 0.04",1488.4 ± 1.3 m/s
same,speed of sound,"[2]; 298.15 K, m1 = 0.06",1489.6 ± 1.3 m/s
same,speed of sound,"[2]; 298.15 K, m1 = 0.08",1490.5 ± 1.3 m/s
same,speed of sound,"[2]; 298.15 K, m1 = 0.1",1491.1 ± 1.3 m/s
same,mass density,"[2]; 298.15 K, m1 = 0.01",1096.42 ± 1 kg/m3
same,mass density,"[2]; 298.15 K, m1 = 0.02",1097.3 ± 1 kg/m3
same,mass density,"[2]; 298.15 K, m1 = 0.04",1098.53 ± 1 kg/m3
same,mass density,"[2]; 298.15 K, m1 = 0.06",1099.79 ± 1 kg/m3
same,mass density,"[2]; 298.15 K, m1 = 0.08",1100.99 ± 1 kg/m3
same,mass density,"[2]; 298.15 K, m1 = 0.1",1102.29 ± 1 kg/m3
same,viscosity,"[2]; 308.15 K, m1 = 0.01",1.545 ± 0.28 mPa·s
same,viscosity,"[2]; 308.15 K, m1 = 0.02",1.571 ± 0.28 mPa·s
same,viscosity,"[2]; 308.15 K, m1 = 0.04",1.614 ± 0.29 mPa·s
same,viscosity,"[2]; 308.15 K, m1 = 0.06",1.655 ± 0.3 mPa·s
same,viscosity,"[2]; 308.15 K, m1 = 0.08",1.699 ± 0.31 mPa·s
same,viscosity,"[2]; 308.15 K, m1 = 0.1",1.73 ± 0.31 mPa·s
same,speed of sound,"[2]; 308.15 K, m1 = 0.01",1452.4 ± 1.3 m/s
same,speed of sound,"[2]; 308.15 K, m1 = 0.02",1453.4 ± 1.3 m/s
same,speed of sound,"[2]; 308.15 K, m1 = 0.04",1454.7 ± 1.3 m/s
same,speed of sound,"[2]; 308.15 K, m1 = 0.06",1455.9 ± 1.3 m/s
same,speed of sound,"[2]; 308.15 K, m1 = 0.08",1456.7 ± 1.3 m/s
same,speed of sound,"[2]; 308.15 K, m1 = 0.1",1457.6 ± 1.3 m/s
same,mass density,"[2]; 308.15 K, m1 = 0.01",1086.43 ± 1 kg/m3
same,mass density,"[2]; 308.15 K, m1 = 0.02",1087.47 ± 1 kg/m3
same,mass density,"[2]; 308.15 K, m1 = 0.04",1088.83 ± 1 kg/m3
same,mass density,"[2]; 308.15 K, m1 = 0.06",1089.98 ± 1 kg/m3
same,mass density,"[2]; 308.15 K, m1 = 0.08",1091.08 ± 1 kg/m3
same,mass density,"[2]; 308.15 K, m1 = 0.1",1092.32 ± 1 kg/m3
same,viscosity,"[2]; 318.15 K, m1 = 0.01",1.264 ± 0.23 mPa·s
same,viscosity,"[2]; 318.15 K, m1 = 0.02",1.294 ± 0.23 mPa·s
same,viscosity,"[2]; 318.15 K, m1 = 0.04",1.324 ± 0.24 mPa·s
same,viscosity,"[2]; 318.15 K, m1 = 0.06",1.355 ± 0.25 mPa·s
same,viscosity,"[2]; 318.15 K, m1 = 0.08",1.391 ± 0.25 mPa·s
same,viscosity,"[2]; 318.15 K, m1 = 0.1",1.427 ± 0.26 mPa·s
same,speed of sound,"[2]; 318.15 K, m1 = 0.01",1418.9 ± 1.3 m/s
same,speed of sound,"[2]; 318.15 K, m1 = 0.02",1419.9 ± 1.3 m/s
same,speed of sound,"[2]; 318.15 K, m1 = 0.04",1421 ± 1.3 m/s
same,speed of sound,"[2]; 318.15 K, m1 = 0.06",1422.2 ± 1.3 m/s
same,speed of sound,"[2]; 318.15 K, m1 = 0.08",1423.2 ± 1.3 m/s
same,speed of sound,"[2]; 318.15 K, m1 = 0.1",1424.5 ± 1.3 m/s
same,mass density,"[2]; 318.15 K, m1 = 0.01",1076.43 ± 1 kg/m3
same,mass density,"[2]; 318.15 K, m1 = 0.02",1077.19 ± 1 kg/m3
same,mass density,"[2]; 318.15 K, m1 = 0.04",1078.52 ± 1 kg/m3
same,mass density,"[2]; 318.15 K, m1 = 0.06",1079.89 ± 1 kg/m3
same,mass density,"[2]; 318.15 K, m1 = 0.08",1080.99 ± 1 kg/m3
same,mass density,"[2]; 318.15 K, m1 = 0.1",1082.35 ± 1 kg/m3
COc1cc(-c2cc(-c3ccc(O)cc3)[nH]c(=O)c2C#N)ccc1O + C[S+](C)[O-],viscosity,"[2]; 298.15 K, m1 = 0.01",1.885 ± 0.34 mPa·s
same,viscosity,"[2]; 298.15 K, m1 = 0.02",1.963 ± 0.35 mPa·s
same,viscosity,"[2]; 298.15 K, m1 = 0.04",2.06 ± 0.37 mPa·s
same,viscosity,"[2]; 298.15 K, m1 = 0.06",2.144 ± 0.39 mPa·s
same,viscosity,"[2]; 298.15 K, m1 = 0.08",2.243 ± 0.41 mPa·s
same,viscosity,"[2]; 298.15 K, m1 = 0.1",2.323 ± 0.42 mPa·s
same,speed of sound,"[2]; 298.15 K, m1 = 0.01",1486.3 ± 1.3 m/s
same,speed of sound,"[2]; 298.15 K, m1 = 0.02",1487.3 ± 1.3 m/s
same,speed of sound,"[2]; 298.15 K, m1 = 0.04",1488.9 ± 1.3 m/s
same,speed of sound,"[2]; 298.15 K, m1 = 0.06",1490.6 ± 1.3 m/s
same,speed of sound,"[2]; 298.15 K, m1 = 0.08",1492 ± 1.3 m/s
same,speed of sound,"[2]; 298.15 K, m1 = 0.1",1493.7 ± 1.3 m/s
same,mass density,"[2]; 298.15 K, m1 = 0.01",1096.12 ± 1 kg/m3
same,mass density,"[2]; 298.15 K, m1 = 0.02",1097.17 ± 1 kg/m3
same,mass density,"[2]; 298.15 K, m1 = 0.04",1098.34 ± 1 kg/m3
same,mass density,"[2]; 298.15 K, m1 = 0.06",1099.52 ± 1 kg/m3
same,mass density,"[2]; 298.15 K, m1 = 0.08",1100.69 ± 1 kg/m3
same,mass density,"[2]; 298.15 K, m1 = 0.1",1101.86 ± 1 kg/m3
same,viscosity,"[2]; 308.15 K, m1 = 0.01",1.544 ± 0.28 mPa·s
same,viscosity,"[2]; 308.15 K, m1 = 0.02",1.576 ± 0.29 mPa·s
same,viscosity,"[2]; 308.15 K, m1 = 0.04",1.623 ± 0.29 mPa·s
same,viscosity,"[2]; 308.15 K, m1 = 0.06",1.663 ± 0.3 mPa·s
same,viscosity,"[2]; 308.15 K, m1 = 0.08",1.704 ± 0.31 mPa·s
same,viscosity,"[2]; 308.15 K, m1 = 0.1",1.729 ± 0.31 mPa·s
same,speed of sound,"[2]; 308.15 K, m1 = 0.01",1452.4 ± 1.3 m/s
same,speed of sound,"[2]; 308.15 K, m1 = 0.02",1453.2 ± 1.3 m/s
same,speed of sound,"[2]; 308.15 K, m1 = 0.04",1454.5 ± 1.3 m/s
same,speed of sound,"[2]; 308.15 K, m1 = 0.06",1455.6 ± 1.3 m/s
same,speed of sound,"[2]; 308.15 K, m1 = 0.08",1456.5 ± 1.3 m/s
same,speed of sound,"[2]; 308.15 K, m1 = 0.1",1457.4 ± 1.3 m/s
same,mass density,"[2]; 308.15 K, m1 = 0.01",1086.44 ± 1 kg/m3
same,mass density,"[2]; 308.15 K, m1 = 0.02",1087.19 ± 1 kg/m3
same,mass density,"[2]; 308.15 K, m1 = 0.04",1088.48 ± 1 kg/m3
same,mass density,"[2]; 308.15 K, m1 = 0.06",1089.69 ± 1 kg/m3
same,mass density,"[2]; 308.15 K, m1 = 0.08",1090.67 ± 1 kg/m3
same,mass density,"[2]; 308.15 K, m1 = 0.1",1091.98 ± 1 kg/m3
same,viscosity,"[2]; 318.15 K, m1 = 0.01",1.265 ± 0.23 mPa·s
same,viscosity,"[2]; 318.15 K, m1 = 0.02",1.312 ± 0.24 mPa·s
same,viscosity,"[2]; 318.15 K, m1 = 0.04",1.364 ± 0.25 mPa·s
same,viscosity,"[2]; 318.15 K, m1 = 0.06",1.392 ± 0.25 mPa·s
same,viscosity,"[2]; 318.15 K, m1 = 0.08",1.421 ± 0.26 mPa·s
same,viscosity,"[2]; 318.15 K, m1 = 0.1",1.462 ± 0.27 mPa·s
same,speed of sound,"[2]; 318.15 K, m1 = 0.01",1419 ± 1.3 m/s
same,speed of sound,"[2]; 318.15 K, m1 = 0.02",1420.1 ± 1.3 m/s
same,speed of sound,"[2]; 318.15 K, m1 = 0.04",1421.5 ± 1.3 m/s
same,speed of sound,"[2]; 318.15 K, m1 = 0.06",1422.7 ± 1.3 m/s
same,speed of sound,"[2]; 318.15 K, m1 = 0.08",1424 ± 1.3 m/s
same,speed of sound,"[2]; 318.15 K, m1 = 0.1",1425.1 ± 1.3 m/s
same,mass density,"[2]; 318.15 K, m1 = 0.01",1076.45 ± 1 kg/m3
same,mass density,"[2]; 318.15 K, m1 = 0.02",1077.22 ± 1 kg/m3
same,mass density,"[2]; 318.15 K, m1 = 0.04",1078.49 ± 1 kg/m3
same,mass density,"[2]; 318.15 K, m1 = 0.06",1079.59 ± 1 kg/m3
same,mass density,"[2]; 318.15 K, m1 = 0.08",1080.74 ± 1 kg/m3
same,mass density,"[2]; 318.15 K, m1 = 0.1",1081.94 ± 1 kg/m3
C[S+](C)[O-] [dimethyl sulfoxide] + COc1cc(-c2cc(-c3ccc(O)cc3)[nH]c(=O)c2C#N)ccc1O,viscosity,"[2]; 298.15 K, m2 = 0",1.814 ± 0.33 mPa·s
same,speed of sound,"[2]; 298.15 K, m2 = 0",1484.8 ± 1.3 m/s
same,mass density,"[2]; 298.15 K, m2 = 0",1095.28 ± 1 kg/m3
same,viscosity,"[2]; 308.15 K, m2 = 0",1.472 ± 0.27 mPa·s
same,speed of sound,"[2]; 308.15 K, m2 = 0",1450.9 ± 1.3 m/s
same,mass density,"[2]; 308.15 K, m2 = 0",1085.23 ± 1 kg/m3
same,viscosity,"[2]; 318.15 K, m2 = 0",1.176 ± 0.21 mPa·s
same,speed of sound,"[2]; 318.15 K, m2 = 0",1417.4 ± 1.3 m/s
same,mass density,"[2]; 318.15 K, m2 = 0",1075.19 ± 1 kg/m3
